The values below come from paper PMC10223356, “Tetrasubstituted Pyrrole Derivative Mimetics of Protein–Protein Interaction Hot-Spot Residues: A Promising Class of Anticancer Agents Targeting Melanoma Cells” (Molecules, 2023).

Values after ≈ are worked out from the molar mass of the structure shown.

Data set [1] concerns human epithelial melanoma A375 cells. The data set is described as follows: Cell survival index (MTT + cell count) bioscreen, A375. It counts as cell-based. The note with it: for IC50: A-375, human melanoma cell line, 48 h of incubation, cell survival index, mean ± SEM (n = 30); for SI (selectivity index): SI = IC50 L6/IC50 A375. Here is the method:
(§1) Cell growth inhibition activity of compounds 1, 9a–i, 10a,b, and the positive control nutlin-3a was evaluated following 48 h of incubation with increasing concentrations of the compounds (from 1.5 to 25 µM) in human cancer (A375 and HCT-116) and healthy (L6) cell lines. […] The evaluation of the “cell survival index” show a typical concentration-dependent sigmoid trend, achieving IC50 values in the low micromolar range (Figure S2).
(§2) Human epithelial melanoma A375 cells, human colorectal carcinoma HCT-116 cells, and normal rat L6 myoblast were grown in DMEM (Invitrogen, Paisley, UK) supplemented with 10% fetal bovine serum (FBS, Cambrex, Verviers, Belgium), L-glutamine (2 mM, Sigma, Milan, Italy), penicillin (100 units/mL, Sigma), and streptomycin (100 μg/mL, Sigma) and cultured in a humidified 5% carbon dioxide atmosphere at 37 °C, according to ATCC recommendations. A375 and HCT-116 were used as preclinical human cancer models in vitro, while rat L6 were used as control healthy cells.
(§3) The antiproliferative activity of 1, 9a–i, and 10a,b was investigated through the estimation of a “cell survival index”, arising from the combination of cell viability evaluation with cell counting, as previously reported. The cell survival index is calculated as the arithmetic mean between the percentage values derived from the MTT assay and the automated cell count. Cells were inoculated in 96-microwell culture plates at a density of 10^4 cells/well and allowed to grow for 24 h. The medium was then replaced with fresh medium and cells were treated for an additional 48 h with a range of concentrations (from 1.5 to 25 μM) of 1, 9a–i, and 10a,b. Using the same experimental procedure, cell cultures were also incubated with DMSO as negative controls (vehicle), as well as with cisplatin (cDDP) and nutlin-3a as positive controls for cytotoxic and antiproliferative effects, respectively. Cell viability was evaluated using the MTT assay procedure. Cell number was determined by TC20 automated cell counter (Bio-Rad, Milan, Italy), providing an accurate and reproducible total count of cells and a live/dead ratio in one step by a specific dye (trypan blue) exclusion assay. The calculation of the concentration required to inhibit the net increase in the cell number and viability by 50% (IC50) is based on plots of data (n = 6 for each experiment) and repeated five times (total n = 30). IC50 values were calculated from a dose–response curve by nonlinear regression using a curve-fitting program, GraphPad Prism 5.0, and are expressed as mean values ± SEM (n = 30) of five independent experiments.

Data set [2] in a line: Solubility assay in PBS by UV light scattering (precipitation point). It counts as physicochemical. The note with it: for solubility at 1 min: PBS (phosphate-buffered saline), aqueous buffer, kinetic from dmso stock, PBS solution pH = 7.4, 37 °C, mean ± SEM (n = 3). Here is the method:
The solubility of all compounds was evaluated in a PBS solution (phosphate-buffered saline; Sigma-Aldrich, Merck KGaA, Darmstadt, Germany, pH = 7.4) by means of UV spectroscopy.
For each compound, the precipitation point was quantified measuring the increasing of the UV absorption of PBS in the range of 600–800 nm after successive additions of aliquots of a DMSO solution at specific concentration. Because of the absence of bands in the selected UV region, the increase in absorption is due to light scattering caused by the formation of particulate in the PBS. UV absorption data were graphically reported vs. μL of the added DMSO solution (x-axis), and the precipitation point was identified as the intersect point of the bilinear fitted curve. The x coordinate of the intersect point corresponded to the microlitres of DMSO added to PBS (1.4 mL) when the precipitation occurred, from which the concentration of the molecule in PBS at the precipitation point is readily calculated.
The solubility of each molecule in PBS was quantified measuring the UV scattering in the range of 600–800 nm (JASCO UV-530 spectrophotometer, equipped with ETC-505 T temperature controller). DMSO solutions of 1, 9a, 9b, 9c, 9d, 9e, 9f, ±10b, and nutlin-3a were used at a final concentration of 2.6 mM, whereas those of 9g, 9h, and 9i were used at 1.0 mM. A total of 1400 µL of degassed PBS was placed in a quartz cuvette (o.l. 0.5 cm), equilibrated 5 min at 37 °C, and then titrated by 7–10 successive additions of 0.5 µL or 0.3 µL from the DMSO solution. Each titration was performed without removing the cuvette from the UV cell and, after each addition, the solution was equilibrated 1 min a 37 °C under gently stirring before the acquisition of the UV data. For each molecule, the solubility was expressed as the mean ± SEM (n = 3).

In data set [3] the test system is human colorectal carcinoma HCT-116 cells. The data set is described as follows: Cell survival index (MTT + cell count) bioscreen, HCT-116. It counts as cell-based. Conditions: HCT-116, 48 h, human colon cancer cell line, 48 h of incubation, mean ± SEM (n = 30). The procedure: as §1, §2, §3
In the next data set the test system is normal rat L6 myoblast. The data set is described as follows: Cell survival index (MTT + cell count) bioscreen, L6. It counts as cell-based. The note with it: healthy rat myoblast cell line, 48 h of incubation, mean ± SEM (n = 30), read-out: L6 IC50. The procedure: as §1, §2, §3
On the set-up of data set [4]: method as in PMID 23879262. Conditions: 20 mM of PBS (pH = 7.4) containing 150 mM of KCl; cited from earlier work.
Data set [5] concerns human A375 melanoma cells. Nature of the data set: Apoptosis/Necrosis detection by fluorescence microscopy. Conditions: A375 cells incubated with IC50 concentrations. It counts as cell-based. The text has this:
In order to confirm the possible activation of apoptosis, we performed fluorescence experiments to simultaneously monitor apoptotic and/or necrotic cells as well as deepen the biological effects on A375 triggered by exposure to the most bioactive derivatives under investigation (Figure 5).
Indeed, in apoptosis, PS is transferred to the outer leaflet of the plasma membrane. As a general indicator of the initial/intermediate stages of programmed cell death, the PS appearance on the cell surface can be detected as an apoptotic hallmark. Even in this circumstance, the results are very similar to those obtained with nutlin-3a.
The evaluation of apoptosis and/or necrosis induction after treatments in vitro was investigated by using the Apoptosis/Necrosis Detection kit (ab176749, Abcam, Discovery Drive, Cambridge Biomedical Campus, Cambridge, UK), which is optimized to simultaneously detect cell apoptosis (green), necrosis (red), and healthy cells (blue) by fluorescence microscopy analysis. […] As a universal indicator of the initial/intermediates stages of cell apoptosis, the appearance of PS on the cell surface can be detected before cytomorphological changes are observed. Thus, the phosphatidylserine (PS) early apoptotic sensor has green fluorescence (Ex/Em = 490/525 nm) upon binding to membrane PS. […]

Regarding `Cc1ccc(Cn2c(C(=O)NCc3cccc(Cl)c3)cc(C(=O)c3ccccc3)c2C)cc1` [compound 1, 4-benzoyl-N-[(3-chlorophenyl)methyl]-5-methyl-1-[(4-methylphenyl)methyl]-1H-pyrrole-2-carboxamide], in data set [1], the IC50 was found to be 20 ± 4 µM and the “SI (selectivity index)” value was 2.1. The molecule further yielded a solubility at 1 min in data set [2] of 3.5 ± 0.1 µM (≈ 1.6 µg/mL). The 50% inhibitory concentration (IC50) in data set [3] came to 41.4 ± 6 µM. For the same molecule, the CC50 in the data set with normal rat L6 myoblast was 42 ± 3 µM. For the same molecule, the Solubility in data set [4] is listed as ≤ 6.8 µM.
For the molecule `Cc1c(C(=O)c2ccccc2)cc(C(=O)NCc2cccc(Cl)c2)n1Cc1ccc(F)cc1` [compound 9c, 4-Benzoyl-N-(3-chlorobenzyl)-1-(4-fluorobenzyl)-5-methyl-1H-pyrrole-2-carboxamide], the IC50 in data set [1] came to 13 ± 4 µM; in data set [3], 55.9 ± 7 µM. In addition, the “SI (selectivity index)” value in data set [1] is listed as 2.7. Besides, the “Volume of DMSO solution added to PBS at the precipitation point” value in data set [2] (DMSO solution 2.6 mM added to 1400 µL PBS) is listed as 2,1 µL. Also, the solubility at 1 min in data set [2] worked out at 3.9 ± 0.2 µM (≈ 1.8 µg/mL). Further, the “Activation of apoptosis (phosphatidylserine sensor, green fluorescence)” value in data set [5] is given as “consistent activation of apoptosis”. Besides, in the data set with normal rat L6 myoblast, the CC50 turned out to be 35 ± 4 µM.
Regarding `Cc1c(C(=O)c2ccccc2)cc(C(=O)NCc2cccc(Cl)c2)n1Cc1ccc(N)cc1` [compound 10a, 1-(4-aminobenzyl)-4-benzoyl-N-(3-chlorobenzyl)-5-methyl-1H-pyrrole-2-carboxamide], the IC50 was found to be 10 ± 4 µM in data set [1] and 41.3 ± 6 µM in data set [3]. Besides, the “SI (selectivity index)” value in data set [1] turned out to be 5.6. The molecule further gave a solubility at 1 min in data set [2] of 10.5 ± 0.1 µM (≈ 4.81 µg/mL). Further, in data set [2] (PBS pH 7.4, ratio of DMSO solution volumes at the precipitation points), the “Solubility fold higher than that of 1” value is on record as 2.8 fold. In data set [5], the “Activation of apoptosis (phosphatidylserine sensor, green fluorescence)” value is reported as “consistent activation of apoptosis”. In addition, in the data set with normal rat L6 myoblast, the CC50 was found to be 55 ± 7 µM.
